Key:
[1] = test system: 2.5% DSS-induced inflammatory bowel disease animal model; assay: Body weight change in DSS-induced inflammatory bowel disease mice; type: in vivo, C57BL/6N male mice; conditions: 5-ASA 100 mg/kg oral for 10 days; 2.5% DSS in drinking water 8 days; body weight before DSS = 100%; negative control 84.50±2.78%, normal 104.89±1.09%
Description: (§1) 6-week-old C57BL/6N male mice were purchased and pre-bred for one week, and then they were randomly divided into a total of 4 groups of 8 mice per group, and experiments were conducted as shown in Table 1 below.
Body weight loss is a representative symptom of inflammatory bowel disease (Scientific Reports volume 10, Article number: 3829 (2020)). The body weight of the mouse was measured once a day at the same time (10 am) using an electronic scale. The rate of change in body weight of each group was obtained by summing the body weight of 8 mice per group and then dividing by 8. The average body weight immediately before the start of administration of 2.5% DSS in drinking water was set as 100%, and the average body weight of each group was calculated every day to measure the rate of change in body weight. Significance was verified by performing a Mann-Whitney test for each group between the negative control group to which 2.5% DSS was administered in drinking water and the experimental group.

[2] = test system: 2.5% DSS-induced inflammatory bowel disease animal model; assay: Spleen weight and length (spleen ratio) in DSS-induced inflammatory bowel disease mice; type: in vivo, C57BL/6N male mice; conditions: 5-ASA 100 mg/kg oral, last day of administration
Description: as §1
A representative symptom that can occur in relation to inflammatory bowel disease includes splenitis. As such, when the spleen becomes inflamed, the size of the spleen is increased by its nature (Nutrients 2019, 11(11), 2776), and in fact, it is known that the spleen becomes enlarged in the model of IBD induced after DSS treatment (Biol. Pharm. Bull. 43, 450-457 (2020)). Therefore, in order to evaluate the level of inflammation in the spleen of mice according to the administration of the Isatidis folium extract of the present invention, the mouse of Example 1 was sacrificed on the last day of each administration, and then the weight and length of the spleen of each group compared to those of the negative control group were measured, and the spleen ratio is shown.

## Nc1ccc(O)c(C(=O)O)c1 [5-ASA, 5-aminosalicylic acid]
[1]
  rate of change in body weight: 88.62±1.52%
[2]
  decrease of weight and length of the spleen compared to negative control group: 60.6%
